Consider one molecule from the supplement of paper PMC12076712.

Among the targets are ROCK2 (UniProt O75116); UniProt P49841; TAOK3 (UniProt Q9H2K8); UniProt Q16659; MAP3K4 (UniProt Q9Y6R4); UniProt Q16513; UniProt Q8NI60; RAF1 (UniProt P04049); UniProt P23443; INSR (UniProt P06213); MAP4K5 (UniProt Q9Y4K4); STK33 (UniProt Q9BYT3); TNIK (UniProt Q9UKE5).
Assay in all cases: pIC50, kinobeads binding competition
What all share (conditions): cell material: Jurkat lysate

In a further assay the target is T1, IRAK4 (UniProt Q9NWZ3).
T1 sequence (whole entry): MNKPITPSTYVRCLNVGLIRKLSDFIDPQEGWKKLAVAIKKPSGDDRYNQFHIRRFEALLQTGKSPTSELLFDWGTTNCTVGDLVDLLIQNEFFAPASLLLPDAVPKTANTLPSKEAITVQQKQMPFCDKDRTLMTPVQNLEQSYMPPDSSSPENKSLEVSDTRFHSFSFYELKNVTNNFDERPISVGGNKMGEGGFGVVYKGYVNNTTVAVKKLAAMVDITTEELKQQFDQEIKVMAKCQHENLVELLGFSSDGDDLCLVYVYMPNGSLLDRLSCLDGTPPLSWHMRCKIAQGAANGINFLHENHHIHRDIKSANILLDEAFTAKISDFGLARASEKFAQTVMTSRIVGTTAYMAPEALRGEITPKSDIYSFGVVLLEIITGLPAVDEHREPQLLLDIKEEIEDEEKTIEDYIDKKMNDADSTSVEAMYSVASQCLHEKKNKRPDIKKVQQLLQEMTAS

Another assay addresses T2, CAMK4 (UniProt Q16566).
T2 sequence (whole entry): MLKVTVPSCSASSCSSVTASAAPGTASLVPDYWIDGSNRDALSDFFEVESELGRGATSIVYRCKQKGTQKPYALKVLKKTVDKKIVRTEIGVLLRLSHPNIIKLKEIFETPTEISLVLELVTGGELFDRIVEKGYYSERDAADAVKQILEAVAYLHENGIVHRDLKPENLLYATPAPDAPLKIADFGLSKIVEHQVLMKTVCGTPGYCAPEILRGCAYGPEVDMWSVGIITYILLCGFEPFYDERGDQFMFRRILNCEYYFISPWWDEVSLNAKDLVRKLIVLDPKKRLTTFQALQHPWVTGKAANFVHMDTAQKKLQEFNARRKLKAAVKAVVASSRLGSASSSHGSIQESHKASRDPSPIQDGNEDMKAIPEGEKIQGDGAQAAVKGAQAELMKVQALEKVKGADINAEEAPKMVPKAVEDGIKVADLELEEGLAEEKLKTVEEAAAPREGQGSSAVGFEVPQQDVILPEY

For a further assay, the target named is T3, ILK (UniProt Q13418).
T3 sequence (whole entry): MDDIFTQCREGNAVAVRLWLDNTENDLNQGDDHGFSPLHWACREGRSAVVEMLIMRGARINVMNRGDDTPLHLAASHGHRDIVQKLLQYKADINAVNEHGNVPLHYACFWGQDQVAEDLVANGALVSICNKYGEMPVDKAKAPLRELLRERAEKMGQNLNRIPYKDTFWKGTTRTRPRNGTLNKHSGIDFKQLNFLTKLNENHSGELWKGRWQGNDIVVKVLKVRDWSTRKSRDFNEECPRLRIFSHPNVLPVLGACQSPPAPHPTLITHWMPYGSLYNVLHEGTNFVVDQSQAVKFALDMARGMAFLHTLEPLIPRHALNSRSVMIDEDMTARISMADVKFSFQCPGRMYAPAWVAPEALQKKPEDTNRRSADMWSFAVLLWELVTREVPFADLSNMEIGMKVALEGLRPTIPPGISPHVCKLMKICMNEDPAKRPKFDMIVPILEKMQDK

For a further assay, the target named is T4, TTK (UniProt P33981).
T4 sequence (whole entry): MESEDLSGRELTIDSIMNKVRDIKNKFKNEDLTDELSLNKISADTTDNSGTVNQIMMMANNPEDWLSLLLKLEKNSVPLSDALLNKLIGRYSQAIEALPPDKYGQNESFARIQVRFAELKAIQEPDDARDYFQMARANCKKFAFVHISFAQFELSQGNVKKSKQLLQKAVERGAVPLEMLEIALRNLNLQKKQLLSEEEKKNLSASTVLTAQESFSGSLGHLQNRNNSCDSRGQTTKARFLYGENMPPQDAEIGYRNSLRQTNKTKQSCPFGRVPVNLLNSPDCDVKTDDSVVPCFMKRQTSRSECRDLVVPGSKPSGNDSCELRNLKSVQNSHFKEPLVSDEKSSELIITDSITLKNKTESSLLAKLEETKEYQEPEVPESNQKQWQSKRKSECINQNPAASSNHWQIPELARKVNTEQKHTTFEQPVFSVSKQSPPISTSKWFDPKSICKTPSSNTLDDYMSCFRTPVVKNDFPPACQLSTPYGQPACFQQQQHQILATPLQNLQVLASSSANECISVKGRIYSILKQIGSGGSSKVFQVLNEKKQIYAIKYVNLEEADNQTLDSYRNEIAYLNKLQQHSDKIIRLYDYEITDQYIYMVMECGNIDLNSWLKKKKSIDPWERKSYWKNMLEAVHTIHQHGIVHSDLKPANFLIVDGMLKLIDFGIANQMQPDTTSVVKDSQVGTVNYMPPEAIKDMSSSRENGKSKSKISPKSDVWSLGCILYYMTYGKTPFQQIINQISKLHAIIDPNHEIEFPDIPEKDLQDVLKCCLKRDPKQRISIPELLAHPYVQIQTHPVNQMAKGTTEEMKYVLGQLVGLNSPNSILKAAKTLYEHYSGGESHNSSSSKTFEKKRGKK

± gives the standard deviation of the averaged measurements.

UniProt P49841, sequence (P49841 whole entry, looked up): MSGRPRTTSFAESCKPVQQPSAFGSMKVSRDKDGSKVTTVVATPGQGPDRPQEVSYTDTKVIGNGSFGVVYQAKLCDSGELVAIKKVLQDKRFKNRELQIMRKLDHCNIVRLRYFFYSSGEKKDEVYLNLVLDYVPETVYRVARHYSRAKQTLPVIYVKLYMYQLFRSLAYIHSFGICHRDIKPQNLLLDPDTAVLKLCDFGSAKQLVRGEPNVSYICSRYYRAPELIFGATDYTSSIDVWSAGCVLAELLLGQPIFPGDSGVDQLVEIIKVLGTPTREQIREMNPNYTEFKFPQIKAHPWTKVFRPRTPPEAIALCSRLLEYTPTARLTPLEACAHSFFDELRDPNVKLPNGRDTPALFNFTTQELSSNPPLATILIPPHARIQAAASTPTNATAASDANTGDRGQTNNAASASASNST
UniProt Q16659, sequence (Q16659 whole entry): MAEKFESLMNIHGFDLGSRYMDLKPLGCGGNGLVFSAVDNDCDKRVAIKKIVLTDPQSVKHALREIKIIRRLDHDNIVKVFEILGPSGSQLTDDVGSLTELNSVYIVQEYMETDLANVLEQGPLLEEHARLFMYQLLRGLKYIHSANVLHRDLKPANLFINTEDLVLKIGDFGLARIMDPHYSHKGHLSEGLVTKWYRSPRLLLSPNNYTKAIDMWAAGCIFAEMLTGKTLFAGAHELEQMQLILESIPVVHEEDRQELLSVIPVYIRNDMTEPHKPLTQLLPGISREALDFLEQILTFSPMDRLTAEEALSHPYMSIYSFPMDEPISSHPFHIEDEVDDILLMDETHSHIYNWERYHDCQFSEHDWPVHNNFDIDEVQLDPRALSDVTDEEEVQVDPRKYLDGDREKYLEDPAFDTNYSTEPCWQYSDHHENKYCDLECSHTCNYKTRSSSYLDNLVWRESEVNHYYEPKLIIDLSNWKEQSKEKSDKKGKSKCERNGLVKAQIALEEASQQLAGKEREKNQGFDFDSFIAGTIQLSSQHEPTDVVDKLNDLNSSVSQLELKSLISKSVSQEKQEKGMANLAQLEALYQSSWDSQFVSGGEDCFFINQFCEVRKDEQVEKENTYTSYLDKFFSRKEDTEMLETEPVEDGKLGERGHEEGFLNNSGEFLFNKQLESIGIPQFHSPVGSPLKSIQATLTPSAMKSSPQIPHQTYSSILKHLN
STK33, sequence (Q9BYT3 whole entry, looked up): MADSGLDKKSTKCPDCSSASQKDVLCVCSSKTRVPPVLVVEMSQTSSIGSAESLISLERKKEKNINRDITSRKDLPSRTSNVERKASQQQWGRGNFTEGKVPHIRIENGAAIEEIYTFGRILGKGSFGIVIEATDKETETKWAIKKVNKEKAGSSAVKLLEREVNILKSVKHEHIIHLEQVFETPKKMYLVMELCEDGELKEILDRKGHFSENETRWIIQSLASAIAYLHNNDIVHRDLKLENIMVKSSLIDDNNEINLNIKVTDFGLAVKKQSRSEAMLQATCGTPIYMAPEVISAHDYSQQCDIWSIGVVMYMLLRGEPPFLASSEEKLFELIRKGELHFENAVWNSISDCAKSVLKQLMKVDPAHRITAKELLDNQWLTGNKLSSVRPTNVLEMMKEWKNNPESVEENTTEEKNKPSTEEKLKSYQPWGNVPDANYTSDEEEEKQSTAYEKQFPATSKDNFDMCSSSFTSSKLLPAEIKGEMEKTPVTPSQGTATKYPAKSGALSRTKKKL
UniProt Q16513, sequence (Q16513 whole entry, looked up): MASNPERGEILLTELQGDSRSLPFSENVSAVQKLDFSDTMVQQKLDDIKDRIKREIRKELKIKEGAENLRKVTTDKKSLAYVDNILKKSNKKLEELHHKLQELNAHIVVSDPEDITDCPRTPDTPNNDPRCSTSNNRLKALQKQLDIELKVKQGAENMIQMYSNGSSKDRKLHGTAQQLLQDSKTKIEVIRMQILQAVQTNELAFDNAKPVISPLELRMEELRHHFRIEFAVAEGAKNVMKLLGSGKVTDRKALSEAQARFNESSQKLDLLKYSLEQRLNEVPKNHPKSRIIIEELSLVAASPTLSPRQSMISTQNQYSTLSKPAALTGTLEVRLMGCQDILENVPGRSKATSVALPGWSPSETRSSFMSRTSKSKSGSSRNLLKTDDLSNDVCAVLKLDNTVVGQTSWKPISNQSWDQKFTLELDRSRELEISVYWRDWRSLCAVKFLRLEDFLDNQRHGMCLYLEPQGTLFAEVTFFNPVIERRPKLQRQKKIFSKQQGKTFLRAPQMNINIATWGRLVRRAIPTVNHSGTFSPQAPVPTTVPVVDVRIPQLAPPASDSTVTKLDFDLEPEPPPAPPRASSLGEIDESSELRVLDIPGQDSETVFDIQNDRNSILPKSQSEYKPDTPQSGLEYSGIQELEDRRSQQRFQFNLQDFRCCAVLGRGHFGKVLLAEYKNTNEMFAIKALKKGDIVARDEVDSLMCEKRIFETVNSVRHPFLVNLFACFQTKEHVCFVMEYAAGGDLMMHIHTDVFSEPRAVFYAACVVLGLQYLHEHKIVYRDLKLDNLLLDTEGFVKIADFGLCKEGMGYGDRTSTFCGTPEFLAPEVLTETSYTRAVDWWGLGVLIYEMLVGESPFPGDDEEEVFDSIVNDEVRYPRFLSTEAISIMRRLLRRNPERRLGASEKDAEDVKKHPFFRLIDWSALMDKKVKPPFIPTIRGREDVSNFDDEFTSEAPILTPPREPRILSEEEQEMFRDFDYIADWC
TAOK3, sequence (Q9H2K8 whole entry, looked up): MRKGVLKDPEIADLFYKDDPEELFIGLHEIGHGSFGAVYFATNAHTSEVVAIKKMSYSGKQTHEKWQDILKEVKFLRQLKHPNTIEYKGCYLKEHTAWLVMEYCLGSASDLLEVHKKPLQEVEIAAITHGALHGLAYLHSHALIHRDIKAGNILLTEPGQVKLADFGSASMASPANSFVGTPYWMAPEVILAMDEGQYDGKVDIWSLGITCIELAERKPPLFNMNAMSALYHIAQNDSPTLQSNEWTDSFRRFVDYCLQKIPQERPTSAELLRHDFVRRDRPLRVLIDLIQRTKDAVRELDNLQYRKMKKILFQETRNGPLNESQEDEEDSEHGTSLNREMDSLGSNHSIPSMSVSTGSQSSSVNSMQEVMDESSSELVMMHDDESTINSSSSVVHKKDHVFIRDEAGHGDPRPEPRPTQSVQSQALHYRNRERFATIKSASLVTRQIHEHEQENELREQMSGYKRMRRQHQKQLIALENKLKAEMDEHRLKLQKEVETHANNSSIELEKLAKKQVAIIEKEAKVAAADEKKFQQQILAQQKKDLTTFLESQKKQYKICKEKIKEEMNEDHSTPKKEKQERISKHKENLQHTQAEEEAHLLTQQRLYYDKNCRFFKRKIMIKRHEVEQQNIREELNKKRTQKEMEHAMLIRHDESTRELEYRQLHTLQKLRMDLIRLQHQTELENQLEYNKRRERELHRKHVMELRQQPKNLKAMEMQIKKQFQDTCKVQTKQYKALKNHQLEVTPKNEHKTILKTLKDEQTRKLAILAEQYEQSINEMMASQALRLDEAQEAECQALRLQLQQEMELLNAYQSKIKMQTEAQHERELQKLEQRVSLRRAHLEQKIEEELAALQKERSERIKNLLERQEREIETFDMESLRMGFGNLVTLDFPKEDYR
UniProt Q8NI60, sequence (Q8NI60 whole entry, looked up): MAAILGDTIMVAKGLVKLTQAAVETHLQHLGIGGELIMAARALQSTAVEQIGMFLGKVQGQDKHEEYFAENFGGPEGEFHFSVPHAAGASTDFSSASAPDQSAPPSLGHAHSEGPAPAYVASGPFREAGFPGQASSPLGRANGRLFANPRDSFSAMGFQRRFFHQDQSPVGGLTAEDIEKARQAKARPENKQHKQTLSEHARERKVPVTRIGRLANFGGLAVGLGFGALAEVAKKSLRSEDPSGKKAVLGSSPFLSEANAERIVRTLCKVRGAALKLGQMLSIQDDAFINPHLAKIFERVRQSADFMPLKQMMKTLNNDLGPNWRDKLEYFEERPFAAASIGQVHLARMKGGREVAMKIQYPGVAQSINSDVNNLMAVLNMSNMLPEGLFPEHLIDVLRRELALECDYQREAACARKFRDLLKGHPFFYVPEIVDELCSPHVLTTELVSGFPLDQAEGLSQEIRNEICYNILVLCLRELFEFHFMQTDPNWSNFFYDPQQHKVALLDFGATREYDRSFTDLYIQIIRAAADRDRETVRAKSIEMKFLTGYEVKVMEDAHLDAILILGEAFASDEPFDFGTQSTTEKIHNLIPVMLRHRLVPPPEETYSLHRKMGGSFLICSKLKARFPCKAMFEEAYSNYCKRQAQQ
RAF1, sequence (P04049 whole entry): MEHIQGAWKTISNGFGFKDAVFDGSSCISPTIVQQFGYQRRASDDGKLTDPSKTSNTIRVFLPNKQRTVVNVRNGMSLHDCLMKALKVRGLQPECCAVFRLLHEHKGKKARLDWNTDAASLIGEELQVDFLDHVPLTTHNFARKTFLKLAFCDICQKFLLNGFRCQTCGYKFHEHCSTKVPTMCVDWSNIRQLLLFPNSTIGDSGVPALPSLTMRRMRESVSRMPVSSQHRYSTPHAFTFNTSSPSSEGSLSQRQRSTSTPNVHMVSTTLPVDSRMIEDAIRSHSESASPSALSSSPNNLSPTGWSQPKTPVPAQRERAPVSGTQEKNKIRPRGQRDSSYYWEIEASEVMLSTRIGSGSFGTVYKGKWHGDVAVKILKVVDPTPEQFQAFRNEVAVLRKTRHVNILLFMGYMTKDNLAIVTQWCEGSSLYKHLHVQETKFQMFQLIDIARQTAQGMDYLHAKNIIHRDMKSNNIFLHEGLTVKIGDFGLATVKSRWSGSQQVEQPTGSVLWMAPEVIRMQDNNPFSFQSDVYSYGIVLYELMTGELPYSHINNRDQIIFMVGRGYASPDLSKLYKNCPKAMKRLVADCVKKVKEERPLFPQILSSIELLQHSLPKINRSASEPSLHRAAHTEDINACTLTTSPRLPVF

One may read the pIC50 as the negative decadic logarithm of the IC50, by convention in mol/L. Turning to `CCc1cnn2c(NCc3ccc[n+]([O-])c3)cc(N3CCCC[C@H]3CCO)nc12` [dinaciclib], the negative-log IC50 (pIC50) was less than 4.52 at ROCK2; less than 4.52 at UniProt P49841; 5.79 ± 0.13 on TAOK3; less than 4.52 on UniProt Q16659; less than 4.52 at IRAK4; less than 4.52 at MAP3K4. In addition, the negative-log IC50 (pIC50) at UniProt Q16513, at CAMK4, on ILK, on UniProt Q8NI60, at RAF1 and at UniProt P23443 was less than 4.52 throughout. Moreover, the pIC50 at INSR, on TTK, on MAP4K5, at STK33 and on TNIK was less than 4.52 each time.
